Earlier results on six compounds are cited in patent US9375470B2, “Compositions with reduced dimer formation” (Circassia Limited, priority 2008, dated 2016).

Read-outs that look alike come from different tables or passages of the source.

[1] abbreviates: reported values, Tg for the maximally freeze concentrated state.

As to `OC[C@H]1O[C@@](CO)(O[C@H]2O[C@H](CO)[C@@H](O)[C@H](O)[C@H]2O)[C@@H](O[C@H]2O[C@H](CO)[C@@H](O)[C@H](O)[C@H]2O)[C@@H]1O` [Melezitose], the Tg (reported values) was >100 °C.
For `OC[C@H]1O[C@H](OC[C@H]2O[C@H](O[C@]3(CO)O[C@H](CO)[C@@H](O)[C@@H]3O)[C@H](O)[C@@H](O)[C@@H]2O)[C@H](O)[C@@H](O)[C@H]1O` [Raffinose], the Tg (reported values) is 70-106 °C. Under setting [1], the “Tg′” value is “Approx. −36”.
Take `OC[C@H]1O[C@H](OC[C@H]2O[C@H](OC[C@H]3O[C@H](O[C@]4(CO)O[C@H](CO)[C@@H](O)[C@@H]4O)[C@H](O)[C@@H](O)[C@@H]3O)[C@H](O)[C@@H](O)[C@H]2O)[C@H](O)[C@@H](O)[C@H]1O` [Stachyose]: the Tg (reported values) was 81-123 °C.
For the compound `OC[C@H]1O[C@@](CO)(O[C@H]2O[C@H](CO)[C@@H](O)[C@H](O)[C@H]2O)[C@@H](O)[C@@H]1O` [Sucrose], the “Tg′” value was −32 °C. Besides, the Tg (reported values) was 43-65 °C. Further, the “Tg′” value under setting [1] was “Approx. −46”.
As for `OC[C@H]1O[C@H](O[C@H]2O[C@H](CO)[C@@H](O)[C@H](O)[C@H]2O)[C@H](O)[C@@H](O)[C@@H]1O` [Trehalose], under “reported values”, the Tg was 63-115 °C. In addition, the “Tg′” value under setting [1] was “Approx. −27”.
As for `OC[C@@H](O)[C@@H](O)[C@H](O)[C@H](O)CO` [mannitol], the “Teut (eutectic temperature)” value was −3 °C.
